Patent US10689423B2, “CTLA4-binding protein peptide-linker masks” (City of Hope, priority 2015, dated 2020)
Bridge positions count the residues as written; N and C are the ends. Peptide text beside a SMILES is read from it.

Legend:
[1] = molecular target: T1, mLcn2 (Homo sapiens, UniProt P80188, A60R/C107S/D67H/D97E/E64D/F91S/G122D/H138Y/K145L/K154A/K66Q/K70N/K93H/L123K/L157I/L90I/M140V/N134D/P121G/Q148D/Q48H/Q69M/R101A/R150A/R92S/S147E/T165A/V146A/W99T/Y152F); assay: SPR of analyte mLcn2 flowed over immobilized Peptide16; type: binding
T1 construct: made in house; host or cells: bacteria
Text: FIG. 14A: mLCN2 vs. Pep16. Surface plasmon resonance of analyte mLcn2 flowed over ligand Peptide16 immobilized to a CM5 chip. Representative results are shown from three independent experiments.
(§1) The sequence of mLcn2 was obtained from the PDB, synthesized and produced in bacteria. Peptides that specifically bind to mLcn2 were identified using a cyclic 7-mer library. Positive leads were identified and sequencing of these hits indicated an overall pattern in the sequences. To further characterize the lead peptides and to ensure the peptides bound to the same site as CTLA, a competition ELISA was performed using all leads (FIG. 2A). Based on this analysis, two cyclic peptides were chosen, chemically synthesized, and characterized by SPR (FIG. 2B) and crystallography. Well diffracting crystals were obtained for both complexes (1.95 and 2.15 Å) and refined (R/Rfree of 18.0/22.5% and 16.5/18.5% and no Ramachandran outliers). […] Design of the linker was aided by examination of the crystal structure of lipocalin.

[2] = test system: Lcn2-Fc; assay: Phage competition ELISA of surface-bound peptides on immobilized Lcn2-Fc; type: binding; conditions: compared to Lcn2-Fc pre-complexed with CTLA4-Fc or PBS control
Text: FIGS. 2A and 2B: Identification and characterization of a peptide (CTLA-4 binding domain masking peptide) blocking binding of mLcn2 (CTLA-4 binding domain) to CTLA-4. […] FIG. 2B is a graph showing surface plasmon resonance traces of analyte mLcn2-Fc flowed over ligand Peptide 16 immobilized to a CM5 chip.
FIG. 10B: ELISA results of bacteriophage library after three rounds of enrichment. Wells in a 96-well plate were immobilized with mLcn2-Fc (left column), mLcn2-Fc pre-complexed with CTLA-4-Fc (middle column), or PBS (right column). Each condition was performed in triplicate.
FIGS. 12A-12D: 18 min substrate incubation. […] FIG. 12A is a graph showing Clone 1—YGLGFNF (SEQ ID NO:52); FIG. 12B is a graph showing Clone 2—RIDETLQ (SEQ ID NO:53); FIG. 12C is a graph showing Clone 3—FTPWPEA (SEQ ID NO:54); and FIG. 12D is a graph showing Clone 4—WPEWDLW (SEQ ID NO:55).
FIGS. 13A-13D: 18 min substrate incubation. […] FIG. 13A is a graph showing clone 6—EKWFRFM (SEQ ID NO:56); FIG. 13B is a graph showing clone 8—YLELMHS (SEQ ID NO:57); FIG. 13C is a graph showing clone 12—SVLPPFM (SEQ ID NO:58); FIG. 13D is a graph showing clone 16—WSPLPFM (SEQ ID NO:59).
as §1

[3] = molecular target: mLcn2-Fc; assay: SPR of analyte mLcn2-Fc flowed over immobilized Peptide12; type: binding; conditions: peptide immobilized on CM5 chip, three independent experiments
Text: FIG. 14B: mLCN2-Fc vs. Pep12. Surface plasmon resonance of analyte mLcn2-Fc flowed over ligand Peptide12 immobilized to a CM5 chip. Representative results are shown from three independent experiments.
as §1

[4] = most common major toxicity; cited from earlier work

For `CSCC[C@@H]1NC(=O)[C@H](Cc2ccccc2)NC(=O)[C@@H]2CCCN2C(=O)[C@H](CC(C)C)NC(=O)[C@@H]2CCCN2C(=O)[C@H](CO)NC(=O)[C@H](Cc2c[nH]c3ccccc23)NC(=O)[C@@H](N)CSSC[C@@H](C(=O)O)NC1=O` [Peptide 16, CWSPLPFMC] (H-CWSPLPFMC-OH; disulfide 1-9), the Kd [1] was 4.6 µM.
For CEKWFRFMC [Peptide 6], the “phage binding to immobilized Lcn2-Fc by ELISA” value (“phage binding” below) [2] was “increased binding to immobilized Lcn2-Fc”.
In the case of CFTPWPEAC [Peptide 3], the “phage binding” value [2] is reported as “increased binding to immobilized Lcn2-Fc”.
For CRIDERLQC [Peptide 2], the “phage binding” value [2] was “increased binding to immobilized Lcn2-Fc”.
For CSVLPPFMC [Peptide 12], the Kd [3] was 3.4 µM and the “phage binding” value [2] was “increased binding to immobilized Lcn2-Fc”.
For CWPEWDLWC [Peptide 4], the “phage binding” value [2] was “increased binding to immobilized Lcn2-Fc”.
In the case of CYGLGFNFC [Peptide 1], the “phage binding” value [2] is reported as “increased binding to immobilized Lcn2-Fc”.
With CYLELMHSC [Peptide 8] the “phage binding” value [2] was “increased binding to immobilized Lcn2-Fc”.
In the case of ipilimumab, the “patients affected by enterocolitis” value [4] is given as “approximately 20%”.
